Reference: PMC7281072 (Cancers, 2020)

Columns and labels:
OVCAR-5 cancer cell line [1] = assay: cells; conditions: Homo sapiens, OVCAR-5, 48 h
[2] = tested on: OVCAR-5 human ovarian adenocarcinoma xenograft; set-up: species or system CB17 SCID mice; conditions: mouse, in vivo
OVCAR-5 cancer cell line [3] = tested on: OVCAR-5 cancer cell line
[4] = tested on: UWB1.289+BRCA1 cancer cell line; assay: cells; conditions: Homo sapiens, 48 h
pAKT [5] = assay: Western immunoblotting densitometry, pAKT, SKOV-3 cells; assay type: cell-based, human; conditions: 25 μM; for ratio [pAKT]/[GAPDH] band intensity: SKOV-3 cells; for ratio [pAKT]/[GAPDH] band intensity, single blot (panel A): panel A lower set, cell line not given, control ratio 0.996
AKT1,2 phosphorylation [6] = assay: AKT phosphorylation ELISA, OVCAR-3 cells; assay type: cell-based, human; conditions: for Vmax ± SE, pAKT 1/2 inhibition: Michaelis Menten model; for IC50: Homo sapiens, read-out: IC50, pAKT 1/2 inhibition
AKT1,2 phosphorylation [7] = assay: AKT phosphorylation ELISA, SK-OV-3 cells; assay type: cell-based, human; conditions: for Vmax ± SE, pAKT 1/2 inhibition: Michaelis Menten model; for IC50: Homo sapiens, read-out: IC50, pAKT 1/2 inhibition
AKT1,2 phosphorylation [8] = assay: AKT phosphorylation ELISA, OVCAR-5 cells; assay type: cell-based, human; conditions: for Vmax ± SE, pAKT 1/2 inhibition: Michaelis Menten model; for IC50: Homo sapiens, read-out: IC50, pAKT 1/2 inhibition
AKT1,2 phosphorylation [9] = assay: AKT phosphorylation ELISA, UWB1.289 cells; assay type: cell-based, human; conditions: for Vmax ± SE, pAKT 1/2 inhibition: Michaelis Menten model; for IC50: Homo sapiens, read-out: IC50, pAKT 1/2 inhibition
pAKT [10] = assay: Western immunoblotting densitometry, pAKT, OVCAR-3 cells; assay type: cell-based, human; conditions: 25 μM; for ratio [pAKT]/[GAPDH] band intensity: OVCAR-3 cells; for ratio [pAKT]/[GAPDH] band intensity, single blot (panel A): panel A upper set, cell line not given, control ratio 1.21
[11] = tested on: SKOV-3 human ovarian adenocarcinoma xenograft; set-up: species or system CB17 SCID mice; conditions: mouse, in vivo
[12] = read-out: GI50 (50% Growth Inhibition)
[13] = read-out: IC50 (cytotoxic effect)

Structure (SMILES): C[C@]12CC[C@@H]3c4ccc(OC(=O)CCOc5ccc(N(CCCl)CCCl)cc5)cc4CC[C@H]3[C@@H]1CCC(=O)N2 [ENGA-L08E, 12a-methyl-2-oxo-1,2,3,4,4a,4b,5,6,10b,11,12,12a-dodecahydronaphtho[2,1-f]quinolin-8-yl 3-(4-(bis (2-chloroethyl)amino)phenoxy) propanoate]
- GI50 (OVCAR-5 cancer cell line [1]; [12]): 11 ± 0.6 µM
- IC50 (OVCAR-5 cancer cell line [1]; [13]): 92 ± 8.4 µM
- Median Overall Survival (OS) [2]: 127 days
- Progression Free Survival (PFS) [2]: 34 days
- Response Rate (RR) [2]: 100%
- Cures (mice alive for 120 days after tumor inoculation) ([2]; ip): 3/5
- MST (mean survival time) ([2]; ip): 94.8 ± 6.3 p < 0.01 Days
- T/C% (mean survival time of treated versus saline controls) ([2]; ip): 187.8%
- TI% (Tumor Inhibition) ([2]; ip): 131.0%
- size of the primary tumor ([2]; ip): 113 ± 14 mm^3
- TGI (Total Growth Inhibition) (OVCAR-5 cancer cell line [3]): 60 ± 2.7 μΜ
- GI50 [4, 12]: 18 ± 1 µM
- IC50 [4, 13]: 88 ± 8.1 µM
- TGI (Total Growth Inhibition) (SK-OV-3 cancer cell line): 76 ± 7.2 μΜ
- ratio [pAKT]/[GAPDH] band intensity (pAKT [5]; 15min, control ratio 0.98): 1.04
- ratio [pAKT]/[GAPDH] band intensity (pAKT [5]; 30min, control ratio 0.98): 0.66
- ratio [pAKT]/[GAPDH] band intensity (pAKT [5]; 1h, control ratio 1.02): 0.63
- ratio [pAKT]/[GAPDH] band intensity (pAKT [5]; 3h, control ratio 0.99): 0.52
- ratio [pAKT]/[GAPDH] band intensity (pAKT [5]; 12h, control ratio 0.94): 0.50
- ratio [pAKT]/[GAPDH] band intensity, single blot (panel A) (pAKT [5]; 1h): 0.22
- ratio [pAKT]/[GAPDH] band intensity, single blot (panel A) (pAKT [5]; 3h): 0.20
- Vmax ± SE, pAKT 1/2 inhibition (AKT1,2 phosphorylation [6]; 15 min): 65.97 ± 1.60
- Vmax ± SE, pAKT 1/2 inhibition (AKT1,2 phosphorylation [6]; 30 min): 75.64 ± 0.99
- Vmax ± SE, pAKT 1/2 inhibition (AKT1,2 phosphorylation [6]; 60 min): 78.39 ± 4.18
- IC50 (AKT1,2 phosphorylation [6]; 0.25 h, 15 min): > 50 µM
- IC50 (AKT1,2 phosphorylation [6]; 0.5 h, 30 min): 12.8 µM
- IC50 (AKT1,2 phosphorylation [6]; 1 h, 60 min): 14.2 µM
- Vmax ± SE, pAKT 1/2 inhibition (AKT1,2 phosphorylation [7]; 15 min): 79.22 ± 0.89
- Vmax ± SE, pAKT 1/2 inhibition (AKT1,2 phosphorylation [7]; 30 min): 81.78 ± 2.53
- Vmax ± SE, pAKT 1/2 inhibition (AKT1,2 phosphorylation [7]; 60 min): 82.20 ± 1.68
- IC50 (AKT1,2 phosphorylation [7]; 0.25 h, 15 min): 29.6 µM
- IC50 (AKT1,2 phosphorylation [7]; 0.5 h, 30 min): 24.9 µM
- IC50 (AKT1,2 phosphorylation [7]; 1 h, 60 min): 21.8 µM
- Vmax ± SE, pAKT 1/2 inhibition (AKT1,2 phosphorylation [8]; 15 min): 60.45 ± 3.65
- Vmax ± SE, pAKT 1/2 inhibition (AKT1,2 phosphorylation [8]; 30 min): 61.17 ± 0.62
- Vmax ± SE, pAKT 1/2 inhibition (AKT1,2 phosphorylation [8]; 60 min): 61.47 ± 2.03
- IC50 (AKT1,2 phosphorylation [8]; 0.25 h, 15 min): > 50 µM
- IC50 (AKT1,2 phosphorylation [8]; 0.5 h, 30 min): 34.2 µM
- IC50 (AKT1,2 phosphorylation [8]; 1 h, 60 min): 28.3 µM
- Vmax ± SE, pAKT 1/2 inhibition (AKT1,2 phosphorylation [9]; 15 min): 63.02 ± 1.33
- Vmax ± SE, pAKT 1/2 inhibition (AKT1,2 phosphorylation [9]; 30 min): 68.23 ± 0.99
- Vmax ± SE, pAKT 1/2 inhibition (AKT1,2 phosphorylation [9]; 60 min): 70.28 ± 2.75
- IC50 (AKT1,2 phosphorylation [9]; UWB1289, 0.25 h, 15 min): 14.1 µM
- IC50 (AKT1,2 phosphorylation [9]; UWB1289, 0.5 h, 30 min): 8.24 µM
- IC50 (AKT1,2 phosphorylation [9]; UWB1289, 1 h, 60 min): 6.6 µM
- ratio [pAKT]/[GAPDH] band intensity (pAKT [10]; 30min, control ratio 1.23): 0.93
- ratio [pAKT]/[GAPDH] band intensity (pAKT [10]; 1h, control ratio 1.14): 0.60
- ratio [pAKT]/[GAPDH] band intensity (pAKT [10]; 3h, control ratio 1.27): 0.52
- ratio [pAKT]/[GAPDH] band intensity (pAKT [10]; 6h, control ratio 1.26): 0.47
- ratio [pAKT]/[GAPDH] band intensity (pAKT [10]; 12h, control ratio 1.18): 0.48
- ratio [pAKT]/[GAPDH] band intensity (pAKT [10]; 24h, control ratio 1.29): 0.54
- ratio [pAKT]/[GAPDH] band intensity, single blot (panel A) (pAKT [10]; 1h): 0.40
- ratio [pAKT]/[GAPDH] band intensity, single blot (panel A) (pAKT [10]; 3h): 0.34
- Median Overall Survival (OS) [11]: 105 days
- Progression Free Survival (PFS) [11]: 13 days
- Response Rate (RR) [11]: 100%
